We go through 6 compounds from patent US11617773B2, “Elimination of colonic bacterial driving lethal inflammatory cardiomyopathy” (Eligo Bioscience, priority 2020, dated 2023).

No end group written: not given here.

One test concerns Rag1^−/− mice. In words: Adoptive transfer myocarditis model with antibiotics treatment. The format is in vivo, mouse. As to conditions: for accumulation of TCR-transgenic CD4^+ T cells in hearts / cardiac inflammation by flow cytometry (heart-infiltrating CD45^+ cells): day 28. The protocol: For the generation of single-cell suspensions, spleens and lymph nodes were collected in BSS and were mechanically disrupted on a metallic grid. To confirm the presence of heart-infiltrating cells, mice received 2 μg of anti-CD45.2 BV510 or anti-Thy 1.1 PE i.v. 5 min before being euthanized in the indicated experiments. Euthanized animals were perfused with 20 ml PBS and small heart tissue pieces were placed into a 6-well dish filled with RPMI 1640 medium containing 2% FCS, 20 mM HEPES (Lonza), 1 mg/ml collagenase 0 (Sigma) and 25 μg/ml DNasel (Applichem) and incubated at 37° C. under continuous stirring. The remaining tissue pieces were mechanically disrupted and mononuclear cells were purified by centrifugation (25 min at 800×g, 4° C.) on a 30-70% Percoll gradient (GE Healthcare). For isolation of colonic lamina propria cells, colons were flushed and tissue was harvested and incubated three times for 15 min at room temperature under constant agitation with BSS containing 5% FCS (Lonza), 5 mM EDTA (Sigma), 10 mM HEPES (Sigma) and 1 mM OTT in order to dissociate the epithelial layer. The tissue was subsequently washed with SS containing 10 mM HEPES and digested three times for 20 min at 37° C. with 120 μg/ml collagenase P (Roche), 25 μg/ml DNAse I (Applichem) and 5 μg/ml Dispase I (Roche) in RPMI-1640; after obtaining a single cell suspension, cells were purified by a 30-70% Percoll gradient. Single-cell suspensions were first stained with the fixable viability dye Zombie Aqua (Biolegend) and incubated for 30 min on ice; after washing, cells were incubated for 20 min at 4° C. in PBS containing 2% FCS and 10 mM EDTA with fluorochrome-labeled antibodies (Table 5). Cells were acquired with a BD LSRFortessa (BD Biosciences) and analyzed using FlowJo software (Treestar Inc) following stablished guidelines (32). […] Cells were stimulated with 0.25 μg of the different peptides (see below), or phorbol myristate acetate (50 ng/ml; Sigma)/ionomycin (500 ng/ml; Sigma) (PMA/l) as positive control, or were left untreated. After surface molecule labelling, cells were stained with the fixable viability dye Zombie Aqua (Biolegend). Cells were fixed with cytofix-cytoperm (BD Biosciences) for 20 min. […] Samples were measured using a BD LSR Fortessa (BD Biosciences). Data were analyzed using FlowJo software (Tree Star, Inc.). […] Red blood cells were lysed by osmotic shock and 10^6 splenocytes were injected intravenously in 4 wk mice in the lateral tail vein of Rag1^−/− mice. Seven days after adoptive transfer, mice were bled to confirm CD4^+ T cell expansion. Disease activity scores and analysis of T cell activation in the heart and colonic lamina propria were performed at day 28 post adoptive transfer.

The test system of a further test is B. thetaiotaomicron. Nature of the test: Quantitative B. thetaiotaomicron PCR in feces. In kind it is in vivo, Bacteroides thetaiotaomicron. Conditions: Rag1^−/− recipients, qPCR. The procedure: Bacterial genomic DNA was extracted using a commercial kit (QIAamp DNA Stool Mini Kit) with minor modifications. Glass beads (Sigma, G4649-10G) were used for an optimal disruption of fecal content and an additional extraction step was introduced after incubation of bacteria with a lysis buffer (20 mg/ml lysozyme—Sigma 62970-5G-F, 2 mM EDTA, 1.2% Triton, 20 mM Tris-HCl). Extracted genomic DNA was used as a template for B. thetaiotaomicron PCR amplification and quantification using a real-time PCR machine (Quant Studio 5) and SYBR Green PCR technology (Applied Biosystems, Thermo Fisher Scientific). B. thetaiotaomicron was quantified using species specific primers that have been established and validated before (39) ([…] and […]) with a cycling protocol of denaturation at 95° C. (2 min), 40 cycles of 95° C. (20 sec), 58° C. (20 sec) and 72° C. (30 sec). Each 17 μl qPCR mixture consisted of 8.5 μl of 2×SYBR Green MasterMix (Applied Biosystems, Thermo Fisher Scientific), 1.7 μl of BSA (100 μg/ml), 0.6 μl of each primer (10 μM), 3.60 μl PCR-grade water and 2 μl of extracted genomic DNA. DNA extracted from B. theta ATCC29148 was used to construct a standard curve with 10-fold dilutions of DNA templates of known concentrations. Concentrations of DNA used in the standard curves ranged from 33.75 ng/μl equivalent to 10^7 bacteria to 0.035 pg/μl equivalent to 10^1 bacteria. […]
A general note: Real-time PCR tracks product formation cycle by cycle.

Test [1] deals with CD4^+ T cells from TCRM mice. In words: Ex vivo proliferation assay (CFSE dilution) after peptide re-stimulation. The format is cell-based, mouse. Conditions: 3 days. The protocol:
Spleen cells were labelled with 10 μl of 5 mM carboxyfluorescein succinimidyl ester (CSFE, dissolved in DMSO) (Molecular Probes) in 10 ml of PBS for 10 min at 37° C. The staining reaction was stopped with 1 mL FCS (Lonza), followed by washing with PBS. A total of 2×10^5 splenocytes/well were seeded in 96-well round-bottom plate and MYH6614-629 (RSLKLMATLFSTYASADR, SEQ ID NO: 10) or Bacteroides β-galactosidase11-25 (TFLILMAALTATFASAQK, SEQ ID NO: 11), Enterobacter cysteine hydrolase10-27 (LLIGMMSTFSTYASAQET, SEQ ID NO: 12) or OVA323-339 (ISQAVHAAHAEINEAGR, SEQ ID NO: 13) peptide was added at the indicated concentrations. CSFE dilution was assessed by flow cytometry after 3 days of incubation at 37° C. All peptides were synthetized by Genscript with >80% of purity.

Test [2] concerns CD4^+ T cells from heart and colon of TCRM mice. Nature of the test: Ex vivo restimulation and cytokine production of murine T cells. The format is cell-based, mouse. The protocol: For assessment of ex vivo production of IFN-γ and IL-17, 10^6 lymphocytes were incubated for 3.5 h at 37° C. in 96-well round-bottom plates in 200 μL of RPMI per 5% FCS supplemented with 10 μg/mL brefeldin A (Sigma). Cells were stimulated with 0.25 μg of the different peptides (see below), or phorbol myristate acetate (50 ng/ml; Sigma)/ionomycin (500 ng/ml; Sigma) (PMA/l) as positive control, or were left untreated. After surface molecule labelling, cells were stained with the fixable viability dye Zombie Aqua (Biolegend). Cells were fixed with cytofix-cytoperm (BD Biosciences) for 20 min. Fixed cells were incubated at 4° C. for 40 min with permeabilization buffer (2% FCS, 0.5% saponin in PBS) containing antibodies to CD3, CD4, IFN-γ and IL-17A. Samples were measured using a BD LSR Fortessa (BD Biosciences). Data were analyzed using FlowJo software (Tree Star, Inc.).

For test [3], the system named is peripheral blood mononuclear cells. In words: IFN-γ ELISPOT, human T cell stimulation. As to conditions: Micro-DCM patients compared to healthy controls. The format is cell-based. The procedure: IFN-γ ELISPOT was performed as described by Lv et. al. with minor modifications (7), Briefly, PBMCs from patients and healthy volunteers were isolated on density gradients. PBMCs were adjusted to 2×10^6 cells/ml in 0.5 ml of complete IVS medium supplemented with 8% of human serum. Cells were stimulated for 48 h with 0.25 μg/ml of the indicated peptide or left untreated as medium control. After incubation, cells were washed and re-suspended in 0.3 ml of RPMI/10% FOS and approximately 5×10^5 cells/0.1 ml were dispensed in duplicates into previously coated and blocked ELISPOT plates (IFN-γ base kit, MABTECH). After 24 h of incubation at 37° C. the ELISPOT plates were washed and developed as indicated by the manufacturer. Plates were counted using an ELISPOT reader and analyzed with the software ELISPOT 3.1SR (AID). Number of specific IFN-γ positive cells was calculated as the mean of the duplicates minus the mean of the medium control.

The next test concerns TCRM T cells. Nature of the test: Proliferation of transferred TCRM CD4^+ T cells after injection of peptide loaded dendritic cells. The format is in vivo, mouse. As to conditions: TCRM CD4^+ T cells transferred into BALB/c mice. The text has this: FIGS. 7A-I. Specificity and immune interaction of Bacteroides mimic peptide-specific CD4^+ T cells. (FIG. 7A) In vitro proliferation of CD4^+ T cells from TCRM mice or DO11.10 mice measured by CFSE dilution after re-stimulation with MYH6 or Bacteroides β-galactosidase peptide or ovalbumin peptide at indicated concentration (representative histograms from 1 out of 2 experiments) (FIG. 7B) Dendritic cells loaded with MYH6 or β-gal peptide from Bacteroides at the indicated concentration were co-cultured in vitro with CD4^+ T cells from TCRM mice. Maximum proliferation of CD4^+ T cells was analyzed by flow cytometry and effective concentration 50 (EC50) for each peptide was determined. (FIG. 7C) CD4^+ T cells from TCRM mice were adoptively transferred into BALB/c mice. Proliferation of CD4^+ T cells from TCRM mice was determined ex vivo by CFSE dilution after injection of peptide loaded dendritic cells (n=3). (FIG. 7D-FIG. 7E) Colonization of GF TCRM mice with SPF microbiota or B. thetaiotaomicron or E. coli. […] Fold increase values were calculated using the cytokine production in GF mice as baseline (mean±SEM). […] (FIG. 7H) experimental dosing, (FIG. 7I) representative dot plots left and quantification right of IgA bound bacteria; background was set using samples from Rag^−/− mice (mean±SEM). […]

In the case of `[H]/N=C(/N)N[C@H]1[C@H](O)[C@@H](O)[C@H](O[C@@H]2O[C@@H](C)[C@](O)(C=O)[C@H]2O[C@@H]2O[C@@H](CO)[C@H](O)[C@@H](O)[C@@H]2NC)[C@@H](N/C(N)=N\[H])[C@@H]1O` [Streptomycin], in the test on Rag1^−/− mice, the “accumulation of TCR-transgenic CD4^+ T cells in hearts” value is given as “significantly reduced accumulation” and the “cardiac inflammation by flow cytometry (heart-infiltrating CD45^+ cells)” value is given as “profound reduction”.
Regarding `CN[C@H](CC(C)C)C(=O)N[C@H]1C(=O)N[C@@H](CC(N)=O)C(=O)N[C@H]2C(=O)N[C@H]3C(=O)N[C@H](C(=O)N[C@H](C(=O)O)c4cc(O)cc(O)c4-c4cc3ccc4O)[C@H](O)c3ccc(c(Cl)c3)Oc3cc2cc(c3O[C@@H]2O[C@H](CO)[C@@H](O)[C@H](O)[C@H]2O[C@H]2C[C@](C)(N)[C@H](O)[C@H](C)O2)Oc2ccc(cc2Cl)[C@H]1O` [Vancomycin], the “activity of Th1 cells” value with Rag1^−/− mice (IFN-γ production) is recorded as “reduced to a lesser extent”. Also, the “activation of heart-infiltrating and colonic Th17 cells” value in the test with Rag1^−/− mice (IL-17 production) was “pronounced impact”. In the test on Rag1^−/− mice, the “accumulation of TCR-transgenic CD4^+ T cells in hearts” value is given as “significantly reduced accumulation” and the “cardiac inflammation by flow cytometry (heart-infiltrating CD45^+ cells)” value was “profound reduction”. Further, in the test with Rag1^−/− mice (day 28 post adoptive transfer), the “cardiac disease (histopathology)” value is reported as “significantly ameliorated”. The “B. theta levels in fecal samples” value with B. thetaiotaomicron was “reduced”.
Consider “LLIGMMSTFSTYASAQET (Enterobacter cysteine hydrolase 10-27) [Enterobacter cloacae peptide, Enterobacter cysteine hydrolase10-27 peptide synthetized by Genscript]”, for which, in test [1], the “in vitro proliferation of CD4^+ T cells from TCRM mice” value is on record as “not”.
For “RSLKLMATLFSTYASADR (MYH6 614-629) [MYH6 peptide, MYH6614-629 peptide synthetized by Genscript]”, in test [2] (CD4^+ T cells from colonic lamina propria, TCRM vs DO11.10), the “IFN-γ or IL-17 secretion upon ex-vivo re-stimulation” value is given as “only MYH6-specific CD4^+ T cells, but not ovalbumin-specific CD4^+ T cells from the colonic lamina propria were able to secrete IFN-γ or IL-17”.
As to “SLKLMATLFSSYATAD (listed as Homo sapiens) [SEQ ID NO: 17, human myosin heavy chain 6 peptide]”, in test [3], the “IFN-γ reactivity of PBMC” value is given as “significantly higher IFN-γ reactivity”.
“TFLILMAALTATFASAQK [B. theta β-gal peptide, TFLILMAALTATFASAQK]”: the “activation of TCRM T cells in vivo by peptide-pulsed dendritic cells” value with TCRM T cells is “efficient activation of TCRM T cells in vivo”. Besides, the “ex vivo re-stimulation of transgenic CD4^+ T cells (cytokine production)” value in test [2] (heart and colon of 12 week old TCRM mice) was “ex vivo re-stimulation of transgenic CD4^+ T cells from heart and colon”. The “IFN-γ reactivity of PBMC” value in test [3] is “significantly higher IFN-γ reactivity”. For the same compound, the “in vitro proliferation of CD4^+ T cells from TCRM mice” value in test [1] was “induced in vitro proliferation”.
